Data: patent publication US20250009709A1, “PRENYLATED CHALCONE AND FLAVONOID COMPOSITIONS FOR USE IN TREATING CANCER” (INNOX CORP., priority 2021, published 2025)

Tested on: pCrkl
Assay: pCrkl level in K562-IS cells
Format: cell-based
Settings: 1000 nM imatinib, data not shown
Experimental: The effect of the drug substance on chronic myelogenous leukemic (CML) cells was tested using a K562 cell line model.

Cc1ccc(NC(=O)c2ccc(CN3CCN(C)CC3)cc2)cc1Nc1nccc(-c2cccnc2)n1 [imatinib]
pCrkl level in comparison with non-treated controls: did not significantly change
